One series deals with DBA/2 mice. As to the kind of experiment: Audiogenic seizure model. Format: in vivo. As to conditions: Mus musculus, DBA/2 mice, oral, auditory stimulation 1 hour after administration, read-out: Seizure suppression. Put shortly:
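Male and female DBA/2 mice (3 weeks old, 8/group) dosed orally at 30 mg/kg in 5% gum arabic; 1 h later exposed to 12.6 kHz, 100-110 dB tone for 1 min or until tonic seizure. Maximum seizure score (0–4) recorded; suppression rate graded A (≥90%), B (70–<90%), C (50–<70%).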

For the next series, the system named is ICR mice. The experiment in a line: Rotarod test (motor coordination). Format: in vivo, mouse. As to conditions: oral, rotarod 1 hour after administration. On the procedure: This test is performed to evaluate the effect of the compound on the motor coordination. In this test example, the example compounds shown in Table 4 below were used as test compounds. Male ICR mice (Japan SLC, Inc., 5-6 weeks, 8 per group) were trained to remain on a fixed speed (15 rpm) rotating rod of rotarod apparatus (Muromachi Kikai Co., Ltd.) for 2 minutes. […] After 1 hour of oral administration, the mice were again placed on the rod accelerated from 4 rpm to 40 rpm over 5 minutes and the latency to fall off the rod was recorded for 200 seconds. The falling latency of the compound administration group was calculated as a relative value relative to the average value of the falling latency in the solvent administration group. Here, a coordination disorder of 25% or less was expressed as “A”, and a coordination disorder of more than 25% and 50% or less was expressed as “B”.
For orientation: The rotarod test checks motor coordination on a turning rod.

Molecules are shown by their SMILES.

Turning to `Cc1cn2cc(-c3cnc(Oc4ccccc4)nc3)ccc2n1` [Example 177], the inhibition in vivo at 5 mg/kg in the series on DBA/2 mice was 70 to 90%. For the same molecule, the Motor dysfunction result in the series with ICR mice (dose 5 mg/kg) was “A (a coordination disorder of 25% or less)”.

On to `Cc1ccc(-c2cnc(Oc3ccccc3)nc2)c(N)n1` [Example 64], for which, in the series with DBA/2 mice (dose 3 mg/kg), the inhibition in vivo at 3 mg/kg is above 90%. The Motor dysfunction result in the series with ICR mice (dose 3 mg/kg) is given as “A (a coordination disorder of 25% or less)”.

For the molecule `c1ccc(Oc2ncc(-c3ccc4nncn4n3)cn2)cc1` [Example 289], the inhibition in vivo at 1 mg/kg with DBA/2 mice (dose 1 mg/kg) was above 90%. Also, the Motor dysfunction result in the series with ICR mice (dose 1 mg/kg) was “A (a coordination disorder of 25% or less)”.

`FC(F)(F)c1cn2cc(-c3cnc(Oc4ccccc4)nc3)ccc2n1` [Example 214]: the inhibition in vivo at 30 mg/kg with DBA/2 mice was above 90%. Besides, the Motor dysfunction result with ICR mice (dose 30 mg/kg) was “A (a coordination disorder of 25% or less)”.

On to `Cc1ccc(-c2cnc(Oc3ccccc3)nc2)cn1` [Example 8], for which the inhibition in vivo at 10 mg/kg in the series on DBA/2 mice was above 90%. The Motor dysfunction entry in the series with ICR mice (dose 10 mg/kg) is “A (a coordination disorder of 25% or less)”.

As for `c1ccc(Oc2ncc(-c3ccn4cncc4c3)cn2)cc1` [Example 283], the inhibition in vivo at 5 mg/kg in the series on DBA/2 mice is above 90%. Also, the Motor dysfunction entry in the series with ICR mice (dose 5 mg/kg) was “A (a coordination disorder of 25% or less)”.

As to `CC1CC(=O)NC(=O)N1c1ccc(Oc2ccccc2)cc1` (stereo not drawn) [Example 328, 6-Methyl-1-(4-Phenoxyphenyl)Dihydropyrimidine-2,4 (1H,3H)-Dione], the inhibition in vivo at 30 mg/kg with DBA/2 mice was above 90%. Moreover, in the series with ICR mice (dose 30 mg/kg), the Motor dysfunction entry is “A (a coordination disorder of 25% or less)”.

On to `O=C1CCC(c2cnc(Oc3ccccc3)nc2)=NN1` [Example 92, 6-(2-Phenoxypyrimidin-5-Yl)-4,5-Dihydropyridazin-3 (2H)-One], for which, in the series on DBA/2 mice, the inhibition in vivo at 5 mg/kg is above 90%. In addition, the Motor dysfunction entry in the series on ICR mice (dose 5 mg/kg) is listed as “A (a coordination disorder of 25% or less)”.

For `O=C1CCc2cc(-c3cnc(Oc4ccccc4)nc3)ccc2N1` [Example 245], the inhibition in vivo at 30 mg/kg in the series with DBA/2 mice was above 90%. The Motor dysfunction result in the series on ICR mice (dose 30 mg/kg) is given as “A (a coordination disorder of 25% or less)”.

For `c1ccc(Oc2ncc(-c3ccncn3)cn2)cc1` [Example 10], the inhibition in vivo at 30 mg/kg in the series with DBA/2 mice is above 90%. For the same molecule, in the series with ICR mice (dose 30 mg/kg), the Motor dysfunction entry is “A (a coordination disorder of 25% or less)”.

Consider `N#Cc1cccc(-c2cnc(Oc3ccccc3)nc2)n1` [Example 350], for which, in the series on DBA/2 mice, the inhibition in vivo at 10 mg/kg is above 90%. For the same molecule, the Motor dysfunction result in the series on ICR mice (dose 10 mg/kg) is given as “A (a coordination disorder of 25% or less)”.

As to `Nc1ccc(-c2cnc(Oc3ccccc3)nc2)c(N)n1` [Example 66], the inhibition in vivo at 30 mg/kg in the series on DBA/2 mice was above 90%. Also, the Motor dysfunction entry in the series with ICR mice (dose 30 mg/kg) was “A (a coordination disorder of 25% or less)”.

Turning to `O=C1CCN(c2ccc(Oc3ccccn3)cc2)C(=O)N1` [Example 316], the inhibition in vivo at 30 mg/kg in the series with DBA/2 mice is above 90%. In the series on ICR mice (dose 30 mg/kg), the Motor dysfunction entry was “A (a coordination disorder of 25% or less)”.

Take `O=C1CCN(c2ccc(Oc3ccccc3)c(F)c2)C(=O)N1` [Example 329]: the inhibition in vivo at 30 mg/kg in the series on DBA/2 mice fell in the range of 70 to 90%. In addition, in the series on ICR mice (dose 30 mg/kg), the Motor dysfunction entry is “A (a coordination disorder of 25% or less)”.

For `O=c1ccc(-c2cnc(Oc3ccccc3)nc2)n[nH]1` [Example 91, 6-(2-Phenoxypyrimidin-5-Yl)Pyridazin-3 (2H)-One], the inhibition in vivo at 5 mg/kg in the series on DBA/2 mice was above 90%. In addition, the Motor dysfunction result with ICR mice (dose 5 mg/kg) is given as “A (a coordination disorder of 25% or less)”.

As for `c1ccc(Oc2ncc(-c3ccc4ccnn4c3)cn2)cc1` [Example 151], in the series with DBA/2 mice, the inhibition in vivo at 5 mg/kg is above 90%. Moreover, the Motor dysfunction result with ICR mice (dose 5 mg/kg) is listed as “A (a coordination disorder of 25% or less)”.

Regarding `Clc1cccc(Oc2ncc(-c3ccc4nccn4c3)cn2)c1` [Example 163, 6-(2-(3-Chlorophenoxy)Pyrimidin-5-Yl) Imidazo[1,2-a]Pyridine], the inhibition in vivo at 5 mg/kg in the series with DBA/2 mice was above 90%. In the series with ICR mice (dose 5 mg/kg), the Motor dysfunction result is “A (a coordination disorder of 25% or less)”.

For the molecule `COc1ccc(-c2cnc(Oc3ccc(F)cc3)nc2)nn1` [Example 5], the inhibition in vivo at 5 mg/kg in the series on DBA/2 mice was above 90%. Besides, in the series on ICR mice (dose 5 mg/kg), the Motor dysfunction result was “A (a coordination disorder of 25% or less)”.

The values are drawn from US12391674B2, “Heterocyclic compounds for the treatment of epilepsy” (OTSUKA PHARMACEUTICAL CO., LTD., priority 2018, dated 2025).
